Laboratory results taken from ChEMBL document CHEMBL1140306 (J Med Chem, 2005).

Experiments:
Acetylcholinesterase [1] = biological target: T1, Acetylcholinesterase (Homo sapiens, UniProt P22303); experiment: Inhibition of human AChE induced beta-amyloid aggregation in thioflavin T-based fluorometric assay; type: functional; set-up: concentration or dose not given beside the values; details: concentration not given here
Cholinesterase = Cholinesterase (Homo sapiens, UniProt P06276); experiment: Inhibition of isolated human BuChE
Chain of Cholinesterase (P06276 whole entry): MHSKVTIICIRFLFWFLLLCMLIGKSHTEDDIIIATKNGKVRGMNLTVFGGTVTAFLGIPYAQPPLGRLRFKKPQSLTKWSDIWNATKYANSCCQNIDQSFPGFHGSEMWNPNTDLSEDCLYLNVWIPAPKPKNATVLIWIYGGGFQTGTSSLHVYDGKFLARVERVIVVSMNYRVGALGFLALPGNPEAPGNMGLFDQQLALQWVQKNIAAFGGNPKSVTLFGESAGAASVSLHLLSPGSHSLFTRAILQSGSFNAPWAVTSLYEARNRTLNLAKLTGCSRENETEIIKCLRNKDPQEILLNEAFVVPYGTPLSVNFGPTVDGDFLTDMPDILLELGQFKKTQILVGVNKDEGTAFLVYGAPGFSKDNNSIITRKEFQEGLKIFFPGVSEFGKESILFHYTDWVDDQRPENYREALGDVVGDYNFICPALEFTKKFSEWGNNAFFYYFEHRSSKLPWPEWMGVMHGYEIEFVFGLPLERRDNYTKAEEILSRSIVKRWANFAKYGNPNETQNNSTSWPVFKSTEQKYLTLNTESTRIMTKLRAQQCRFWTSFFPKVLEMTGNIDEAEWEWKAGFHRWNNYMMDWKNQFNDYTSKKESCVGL

Acetylcholinesterase [2] = biological target: T1, Acetylcholinesterase; experiment: Inhibition of recombinant human AChE
[3] = biological target: Cholinesterases; ACHE & BCHE (Homo sapiens) (UniProt P06276+P22303); experiment: Ratio of IC50 for human BuChE and AChE; type: protein assay
Chain of Cholinesterases; ACHE & BCHE (Homo sapiens) (P06276 whole entry, looked up): as the sequence (P06276 whole entry) above
Chain of Cholinesterases; ACHE & BCHE (Homo sapiens) (P22303 whole entry, looked up): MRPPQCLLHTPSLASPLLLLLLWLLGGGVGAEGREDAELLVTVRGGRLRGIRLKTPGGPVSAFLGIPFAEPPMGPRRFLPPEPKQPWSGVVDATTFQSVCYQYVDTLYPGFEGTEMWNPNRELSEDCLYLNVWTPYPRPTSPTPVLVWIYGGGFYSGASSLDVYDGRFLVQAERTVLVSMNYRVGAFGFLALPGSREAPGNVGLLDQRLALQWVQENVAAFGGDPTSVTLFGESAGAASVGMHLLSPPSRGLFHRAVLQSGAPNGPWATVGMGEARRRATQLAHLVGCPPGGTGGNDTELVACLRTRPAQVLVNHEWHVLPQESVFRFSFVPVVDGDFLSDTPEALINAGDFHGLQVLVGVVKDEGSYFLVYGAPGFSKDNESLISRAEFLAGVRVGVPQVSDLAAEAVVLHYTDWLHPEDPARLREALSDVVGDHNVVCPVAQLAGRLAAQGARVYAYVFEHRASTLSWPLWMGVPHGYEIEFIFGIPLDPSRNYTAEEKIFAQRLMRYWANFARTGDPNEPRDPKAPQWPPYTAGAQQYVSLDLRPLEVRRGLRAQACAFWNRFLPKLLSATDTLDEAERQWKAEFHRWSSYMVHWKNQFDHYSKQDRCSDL

T1 sequence (P22303 whole entry): as the sequence (P22303 whole entry, looked up) above

Question: Which inhibition (Acetylcholinesterase [1]) does the source give for `CNC(=O)Oc1cccc(CN(C)CCCOc2ccc3c(c2)O/C(=C\c2ccc4ccccc4c2)C3=O)c1` here?
Answer: 35%

Question: And the IC50 (Cholinesterase)?
Answer: 70.3 nM

Question: And the IC50 (Acetylcholinesterase [2])?
Answer: 3.41 nM

Question: And the Ratio [3]?
Answer: 20.6

Question: For `CNC(=O)Oc1cccc(CN(C)CCCCCCCOc2ccc3c(c2)OCC3=O)c1`, which inhibition (Acetylcholinesterase [1]) is on record?
Answer: 17.5%

Question: What about the IC50 (Cholinesterase) of the same compound?
Answer: 11400 nM

Question: And the Ratio [3]?
Answer: 7.08

Question: What does the source list for `CN(CCCCCCCOc1ccc2c(c1)O/C(=C\c1cccc3ccccc13)C2=O)Cc1cccc(O)c1`?
Answer: inhibition (Acetylcholinesterase [1]): 49.5%; Ratio [3]: 0.09

Question: Which inhibition (Acetylcholinesterase [1]) does the source give for `CNC(=O)Oc1cccc(CN(C)CCCCCCCOc2ccc3c(c2)OC/C(=C\c2cc(OC)c(OC)c(OC)c2)C3=O)c1` here?
Answer: 45.3%

Question: What about the IC50 (Cholinesterase) of the same compound?
Answer: 153 nM

Question: What about the IC50 (Acetylcholinesterase [2]) of the same compound?
Answer: 9.81 nM

Question: And the Ratio [3]?
Answer: 15.6

Question: Which inhibition (Acetylcholinesterase [1]) does the source give for `CNC(=O)Oc1cccc(CN(C)CCCCCCCOc2ccc3c(c2)O/C(=C\c2ccccc2)C3=O)c1` here?
Answer: 43.3%

Question: What about the IC50 (Cholinesterase) of the same compound?
Answer: 57.9 nM

Question: And the IC50 (Acetylcholinesterase [2])?
Answer: 1.95 nM

Question: And the Ratio [3]?
Answer: 29.7

Question: `CNC(=O)Oc1cccc(CN(C)CCCCCCCOc2ccc3c(c2)C/C(=C\c2cc(OC)c(OC)c(OC)c2)C3=O)c1` was tested. Which inhibition (Acetylcholinesterase [1]) did it give?
Answer: 32.8%

Question: What about the IC50 (Cholinesterase) of the same compound?
Answer: 81.3 nM

Question: And the IC50 (Acetylcholinesterase [2])?
Answer: 1.8 nM

Question: And the Ratio [3]?
Answer: 45.2

Question: For `CNC(=O)Oc1ccc2c(c1)[C@]1(C)CCN(C)[C@@H]1N2C`, which inhibition (Acetylcholinesterase [1]) is on record?
Answer: 30%

Question: Which inhibition (Acetylcholinesterase [1]) does the source give for `CNC(=O)Oc1cccc(CN(C)CCCCCCCOc2ccc3c(c2)CC/C(=C\c2cc(OC)c(OC)c(OC)c2)C3=O)c1` here?
Answer: 33.3%

Question: And the IC50 (Cholinesterase)?
Answer: 84.4 nM

Question: What about the IC50 (Acetylcholinesterase [2]) of the same compound?
Answer: 4.94 nM

Question: And the Ratio [3]?
Answer: 17.1

Question: `CNC(=O)Oc1cccc(CN(C)CCCCCCCOc2ccc3c(c2)O/C(=C\c2c4ccccc4cc4ccccc24)C3=O)c1` was tested. Which inhibition (Acetylcholinesterase [1]) did it give?
Answer: 65.3%

Question: And the IC50 (Cholinesterase)?
Answer: 761 nM

Question: And the IC50 (Acetylcholinesterase [2])?
Answer: 79.1 nM

Question: And the Ratio [3]?
Answer: 9.6

Question: For `CNC(=O)Oc1cccc(CN(C)CCCOc2ccc3c(c2)O/C(=C\c2cc(OC)c(OC)c(OC)c2)C3=O)c1`, which inhibition (Acetylcholinesterase [1]) is on record?
Answer: 29.2%

Question: What about the IC50 (Cholinesterase) of the same compound?
Answer: 155 nM

Question: And the IC50 (Acetylcholinesterase [2])?
Answer: 2.99 nM

Question: What about the Ratio [3] of the same compound?
Answer: 51.8

Question: `CNC(=O)Oc1cccc(CN(C)CCCOc2ccc3c(c2)O/C(=C\c2cccc4ccccc24)C3=O)c1` was tested. Which inhibition (Acetylcholinesterase [1]) did it give?
Answer: 37.2%

Question: What about the IC50 (Cholinesterase) of the same compound?
Answer: 44.3 nM

Question: What about the IC50 (Acetylcholinesterase [2]) of the same compound?
Answer: 6.86 nM

Question: And the Ratio [3]?
Answer: 6.45

Question: With `CNC(=O)Oc1cccc(CN(C)CCCOc2ccc3c(=O)c4ccccc4oc3c2)c1` as the compound, how does the inhibition (Acetylcholinesterase [1]) read?
Answer: < 10%

Question: With `CNC(=O)Oc1cccc(CN(C)CCCCCCCOc2ccc3c(c2)O/C(=C\c2cc(Cl)cc(Cl)c2)C3=O)c1` as the compound, how does the inhibition (Acetylcholinesterase [1]) read?
Answer: 47.6%

Question: And the IC50 (Cholinesterase)?
Answer: 130 nM

Question: And the IC50 (Acetylcholinesterase [2])?
Answer: 44.6 nM

Question: And the Ratio [3]?
Answer: 2.91

Question: What does the source list for `CNC(=O)Oc1cccc(CN(C)CCCCCCCOc2ccc3c(c2)O/C(=C\c2ccc(Cl)c(Cl)c2)C3=O)c1`?
Answer: inhibition (Acetylcholinesterase [1]): 49.1%; IC50 (Cholinesterase): 94.6 nM; IC50 (Acetylcholinesterase [2]): 8 nM; Ratio [3]: 11.8

Question: What does the source list for `CNC(=O)Oc1cccc(CN(C)CCCCCCCOc2ccc3c(=O)c4ccccc4oc3c2)c1`?
Answer: inhibition (Acetylcholinesterase [1]): < 10%; Ratio [3]: 51.6

Question: How did the inhibition (Acetylcholinesterase [1]) turn out when `CNC(=O)Oc1cccc(CN(C)CCCCCCCOc2ccc3c(c2)O/C(=C\c2cccc4ccccc24)C3=O)c1` was run?
Answer: 66.7%

Question: And the IC50 (Cholinesterase)?
Answer: 40.2 nM

Question: And the IC50 (Acetylcholinesterase [2])?
Answer: 2.76 nM

Question: What about the Ratio [3] of the same compound?
Answer: 14.5

Question: Which results are given for `CNC(=O)Oc1cccc(CN(C)CCCCCCCOc2ccc3c(c2)O/C(=C\c2cc(OC)c(OC)c(OC)c2)C3=O)c1`?
Answer: inhibition (Acetylcholinesterase [1]): 41%; IC50 (Cholinesterase): 136 nM; IC50 (Acetylcholinesterase [2]): 0.52 nM; Ratio [3]: 261
